Measured values from patent US20250188506A1, “ANTICOAGULANT HEPARIN-CHONDROITIN CHIMERIC SACCHARIDE MOLECULE AS WELL AS PREPARATION METHOD AND APPLICATION THEREOF” (SHANDONG UNIVERSITY, priority 2023, published 2025).

How the values were obtained:
PF4 = target: T1, PF4 (Homo sapiens, UniProt P02776)
T1 sequence (P02776 32-101): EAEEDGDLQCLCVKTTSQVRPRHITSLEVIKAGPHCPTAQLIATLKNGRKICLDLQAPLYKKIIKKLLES

Xa factor = conditions: commercially available comparator, stated in advantages section; cited from earlier work

In the case of `CO[C@H]1O[C@H](COS(=O)(=O)O)[C@@H](O[C@@H]2O[C@@H](C(=O)O)[C@@H](O[C@H]3O[C@H](COS(=O)(=O)O)[C@@H](O[C@@H]4O[C@H](C(=O)O)[C@@H](O[C@H]5O[C@H](COS(=O)(=O)O)[C@@H](O)[C@H](O)[C@H]5NS(=O)(=O)O)[C@H](O)[C@H]4O)[C@H](OS(=O)(=O)O)[C@H]3NS(=O)(=O)O)[C@H](O)[C@H]2OS(=O)(=O)O)[C@H](O)[C@H]1NS(=O)(=O)O` [fondaparinux, fondaparinux sodium], the “average particle size of compounds formed with PF4” value (PF4) is given as 61.57 nm and the “neutralization of activity against the Xa factor by protamine (in words)” value (Xa factor) is given as “almost completely not neutralized”.
